The values that follow come from US4683240A, “Pharmaceutical composition containing an imidazolidinetrione derivative or pharmaceutically acceptable salt thereof” (Nippon Zoki Pharmaceutical Co., Ltd., priority 1985, dated 1987).

Where two headings read alike, the source gives them in different places.

The nature of data set [1]: Acute toxicity test (oral). Details: species or system mouse (ddY-strain). Particulars: mouse, in vivo, male ddY mice, fasted 20 h, deaths over 7 days. The procedure: The test compounds of the present invention suspended in 0.5% aqueous solution of carboxymethylcellulose (C.M.C.) were orally administered to groups of 4 to 6 ddY-strain male mice (weighing about 19 g) which had fasted for 20 hours. The lethal dose was determined by the number of deaths for 7 days thereafter.

A further data set has as its system Blood Glucose. Put plainly: Hypoglycemic effect in glucose-loaded fasted rats (blood glucose). The class given is in vivo, rat (Wistar-strain). Particulars: 2 h. The protocol: Groups of 7 Wistar-strain male rats (weighing about 200 g) which were fasted for 18 hours were used for measurement of hypoglycemic effect according to the modified method by Dulin et al. [Dulin, W. L. et al., Proc. Soc. Expl. Med., 107, 245 (1961)]. That is, 0.5 ml/100 g of 20% aqueous solution of glucose was subcutaneously administered to the backs of rats to prevent a decrease in blood glucose level because of the fasting. Immediately thereafter the test drug suspended in 0.5% aqueous C.M.C. solution was orally given, and 2 hours later, the animals underwent laparotomy under pentobarbital anesthesia, then blood was drawn from the vena cava. The obtained blood sample was allowed to stand for 30 minutes to complete the coagulation and was centrifuged to obtain the serum. Blood sugar level was measured according to the mutalotase GOD method [Trinder, Ann. Clin. Biochem., 6, 24 […]]. Asterisks indicate significant differences (*: p<0.05, **: p<0.01, ***: p<0.001) from the control.

The test system of another data set is Serum Triglyceride. Put plainly: Hypolipidemic effect: serum triglyceride. It is filed as in vivo, rat (Wistar-strain). Particulars: 100 mg/kg oral, 2 h; for Serum Triglyceride Level: control 65 ± 5 (compounds 2-12), 57 ± 4 (compounds 15-29); for inhibition in vivo at 100 mg/kg: Rattus norvegicus, vs control, read-out: Serum Triglyceride Decrease. The procedure:
(§1) The test drugs suspended in 0.5% aqueous C.M.C. solution were orally administered to groups of 8 Wistar-strain male rats (weighing about 185 g) which were fasted for 18 to 20 hours. 2 hours later, the serum was obtained in the same manner described in (2). Serum triglyceride was measured according to the GPO-p-chlorophenol colorimetric determination [Richard W. Spayd et al., Clinical Chemistry, 24, 1343 (1978)], serum free fatty acid was measured according to the Acyl CoA Synthetase-Acyl CoA Oxidase method [Shimizu S. et al., Biochem. Biophys. Res. Commun., 91, 108 (1979)], free fatty acid was measured according to the enzymatic method [Charles C. Allain et al., Clin. Chem., 20, No. 4, 470 (1974)] and total cholesterol was measured according to the enzymatic method [Takayama M. et al., Clinica Chimica Acta, 79, 93 (1977)]. Asterisks indicate significant differences (*: p<0.05, **: p<00.01, ***: p<0.001) from the control.

The test system of a further data set is Serum Free Fatty Acid. Put plainly: Hypolipidemic effect: serum free fatty acid. It is filed as in vivo, rat (Wistar-strain). Particulars: 100 mg/kg oral, 2 h; for Serum Free Fatty Acid Level: control 0.53 ± 0.03 (compounds 2-12), 0.52 ± 0.03 (compounds 15-24); for inhibition in vivo at 100 mg/kg: Rattus norvegicus, vs control, read-out: Serum Free Fatty Acid Decrease. The procedure:
as §1

The test system of a further data set is Serum Phospholipid. Put plainly: Hypolipidemic effect: serum phospholipid. Particulars: 100 mg/kg oral, 2 h; for Serum Phospholipid Level: control 79 ± 2 (compounds 2-12), 72 ± 2 (compounds 15-29); for inhibition in vivo at 100 mg/kg: Rattus norvegicus, vs control, read-out: Serum Phospholipid Decrease. It is filed as in vivo, rat (Wistar-strain). The procedure:
as §1

In the next data set the test system is Total Serum Cholesterol. Put plainly: Hypolipidemic effect: total serum cholesterol. The following applies: 100 mg/kg oral, 2 h; for Total Serum Cholesterol Level: control 44 ± 2 (compounds 4-12), 41 ± 1 (compounds 15-29); for inhibition in vivo at 100 mg/kg: Rattus norvegicus, vs control, read-out: Total Serum Cholesterol Decrease. The class given is in vivo, rat (Wistar-strain). The protocol: as §1

Where [2] appears, read: Rattus norvegicus, Table 2, 100 mg/kg oral, vs control, read-out: Blood Glucose Decrease.
The mark [3] stands for this setting: Table 2, 100 mg/kg oral, control 133 ± 6.
Where [4] appears, read: Rattus norvegicus, Table 3, 100 mg/kg oral, vs control, read-out: Blood Glucose Decrease.
The mark [5] stands for this setting: Table 3, 100 mg/kg oral, control 133 ± 4.

As for `CN1C(=O)NC(=O)C1=O` [compound 2, 1-methylimidazolidinetrione], the LD50 (usually the dose at which mortality reaches 50%) at 168 h in data set [1] was roughly 900 mg/kg. Moreover, in the data set on Blood Glucose (Rattus norvegicus, Table 2, 12.5 mg/kg oral, vs control, read-out: Blood Glucose Decrease), the inhibition in vivo at 12.5 mg/kg worked out at 18%. The inhibition in vivo at 25 mg/kg with Blood Glucose (Rattus norvegicus, Table 2, 25 mg/kg oral, vs control, read-out: Blood Glucose Decrease) turned out to be 25.6%. Moreover, in the data set on Blood Glucose (Rattus norvegicus, Table 2, 50 mg/kg oral, vs control, read-out: Blood Glucose Decrease), the inhibition in vivo at 50 mg/kg came out at 31.6%. Further, the inhibition in vivo at 100 mg/kg in the data set with Blood Glucose (setting [2]) is 25.6%; in the data set on Serum Triglyceride, 66.2%; in the data set with Serum Free Fatty Acid it was 52.8%; in the data set on Serum Phospholipid it was 25.3%. Also, the “Blood Glucose Level” value in the data set with Blood Glucose (Table 2, 12.5 mg/kg oral, control 133 ± 6) was found to be 109 ± 5 mg/dL; in the data set on Blood Glucose (Table 2, 25 mg/kg oral, control 133 ± 6) it was 99 ± 2 mg/dL; in the data set on Blood Glucose (Table 2, 50 mg/kg oral, control 133 ± 6) it was 91 ± 4 mg/dL; in the data set on Blood Glucose (setting [3]), 99 ± 5 mg/dL. The “Serum Triglyceride Level” value in the data set with Serum Triglyceride stood at 22 ± 1 mg/dL. Besides, the “Serum Free Fatty Acid Level” value in the data set on Serum Free Fatty Acid was found to be 0.25 ± 0.03 mEq/l. Besides, in the data set on Serum Phospholipid, the “Serum Phospholipid Level” value was 59 ± 1 mg/dL.
For `CCN1C(=O)NC(=O)C1=O` [compound 3, 1-ethylimidazolidinetrione], the LD50 at 168 h in data set [1] was roughly 700 mg/kg. Moreover, in the data set on Blood Glucose (setting [2]), the inhibition in vivo at 100 mg/kg came to 24.8%. Moreover, in the data set with Blood Glucose (setting [3]), the “Blood Glucose Level” value was 100 ± 2 mg/dL.
Turning to `CN1C(=O)C(=O)N(C)C1=O` [compound 12, 1,3-dimethylimidazolidinetrione], the inhibition in vivo at 100 mg/kg with Blood Glucose (setting [2]) turned out to be 15%. For the same molecule, the “Blood Glucose Level” value in the data set on Blood Glucose (setting [3]) was determined as 115 ± 4 mg/dL. Besides, in the data set with Serum Triglyceride, the “Serum Triglyceride Level” value came to 35 ± 3 mg/dL and the inhibition in vivo at 100 mg/kg turned out to be 46.2%. Also, in the data set with Serum Free Fatty Acid, the “Serum Free Fatty Acid Level” value is 0.37 ± 0.03 mEq/l and the inhibition in vivo at 100 mg/kg came out at 30.2%. In the data set with Total Serum Cholesterol, the “Total Serum Cholesterol Level” value amounted to 39 ± 1 mg/dL and the inhibition in vivo at 100 mg/kg came to 11.4%. In the data set with Serum Phospholipid, the “Serum Phospholipid Level” value is 61 ± 2 mg/dL and the inhibition in vivo at 100 mg/kg turned out to be 22.8%.
Regarding `O=C1NC(=O)N(Cc2ccccc2)C1=O` [compound 15, 1-benzylimidazolidinetrione], the LD50 at 168 h in data set [1] is roughly 1000 mg/kg. Also, in the data set on Blood Glucose (setting [4]), the inhibition in vivo at 100 mg/kg stood at 15.8%. The “Blood Glucose Level” value in the data set with Blood Glucose (setting [5]) was 112 ± 3 mg/dL. Besides, in the data set with Serum Triglyceride, the “Serum Triglyceride Level” value amounted to 30 ± 1 mg/dL and the inhibition in vivo at 100 mg/kg amounted to 47.4%. Moreover, in the data set on Serum Free Fatty Acid, the “Serum Free Fatty Acid Level” value was 0.44 ± 0.02 mEq/l and the inhibition in vivo at 100 mg/kg came out at 15.4%. In the data set on Total Serum Cholesterol, the “Total Serum Cholesterol Level” value worked out at 33 ± 1 mg/dL and the inhibition in vivo at 100 mg/kg was 19.5%. Further, in the data set on Serum Phospholipid, the “Serum Phospholipid Level” value came out at 52 ± 1 mg/dL and the inhibition in vivo at 100 mg/kg was 27.8%.
Turning to `O=C1NC(=O)N(Cc2ccc(F)cc2)C1=O` [compound 18, 1-(4-fluorobenzyl)imidazolidinetrione], the inhibition in vivo at 100 mg/kg in the data set with Blood Glucose (setting [4]) is 20.3%. Also, the “Blood Glucose Level” value in the data set with Blood Glucose (setting [5]) amounted to 106 ± 3 mg/dL. In the data set on Serum Triglyceride, the “Serum Triglyceride Level” value was found to be 30 ± 1 mg/dL and the inhibition in vivo at 100 mg/kg is 47.4%. In the data set on Serum Free Fatty Acid, the “Serum Free Fatty Acid Level” value is reported as 0.42 ± 0.02 mEq/l and the inhibition in vivo at 100 mg/kg worked out at 19.2%. Moreover, in the data set on Total Serum Cholesterol, the “Total Serum Cholesterol Level” value was 34 ± 1 mg/dL and the inhibition in vivo at 100 mg/kg was 17.1%. For the same molecule, in the data set on Serum Phospholipid, the “Serum Phospholipid Level” value amounted to 56 ± 1 mg/dL and the inhibition in vivo at 100 mg/kg turned out to be 22.2%.
Take `Cc1ccccc1CN1C(=O)NC(=O)C1=O` [compound 24, 1-(2-methylbenzyl)imidazolidinetrione]: the inhibition in vivo at 100 mg/kg in the data set with Blood Glucose (setting [4]) was 12.8%. Further, in the data set on Blood Glucose (setting [5]), the “Blood Glucose Level” value came to 116 ± 3 mg/dL. Moreover, in the data set on Serum Triglyceride, the “Serum Triglyceride Level” value was found to be 30 ± 1 mg/dL and the inhibition in vivo at 100 mg/kg was 47.4%. Also, in the data set on Serum Free Fatty Acid, the “Serum Free Fatty Acid Level” value was 0.45 ± 0.01 mEq/l and the inhibition in vivo at 100 mg/kg is 13.5%. Moreover, in the data set with Total Serum Cholesterol, the “Total Serum Cholesterol Level” value worked out at 36 ± 1 mg/dL and the inhibition in vivo at 100 mg/kg was determined as 12.2%. Besides, in the data set on Serum Phospholipid, the “Serum Phospholipid Level” value was found to be 56 ± 1 mg/dL and the inhibition in vivo at 100 mg/kg came to 22.2%.
